Patent US20250049680A1, “COMPOSITIONS AND METHODS FOR TREATING DENTIN CARIES” (Rutgers, The State University of New Jersey, priority 2023, published 2025)
“Also recorded” adds a separate entry of the source. Marks after values point to notes of the source that are not given here.

What was measured:
[1] = SEM-EDS color dot map, intensity of the metal in dentin; set-up: species or system human; conditions: for Unit of Intensity: EDS dot map at 1000x, 0 to 255 scale, mean ± SD; for color intensity: pilot study, mean and standard deviation
Procedure: (§1) The column was further developed with 150 mL of one of five metal chloride solutions (0.1 mol/L AA2P salts of Mg, Zn, Mn, Sr, and Ba) to obtain a fraction containing new cationic L-ascorbic acid 2 phosphates with Mg, Zn, Mn, Sr, or Ba (FIG. 2). The prepared dentin specimens were randomly divided into six groups according to the solution used. The canal of each section was covered with an adhesive wax at the lower surface of the dentin specimen. Dentin specimens were then irrigated with one of five intervening solutions (AA2P salts of Mg (0.18 mM), Zn (5.3 μM), Mn (2.2×10^-8 M), Sr (1.8 μM), and Ba (1.9 μM)) for five minutes, with the saline solution used as the control group. The root canals were then flushed with 10 mL of distilled water immediately after each treatment to remove excess solution.
Three specimens from each group were examined by SEM-EDS mode to observe the precipitation of metallic components on the dentin surface. All specimens were sectioned at a depth of 500 μm (exposure surface to fortifying solutions) using a diamond-coated disk under water cooling. The specimens' surfaces were then polished and sputter-coated with 10 nm gold and observed under an SEM. An EDS color dot map analysis was performed for each specimen at 1000× to evaluate the distribution of trace elements. The intensity of Mg, Zn, Mn, Sr, and Ba was measured using ImageJ software. The color maps were converted to binary, and their mean color intensity (0 to 255 scale) was recorded as a unit of intensity (UI).

[2] = Compressive strength of fortified dentin specimens after pH cycling; set-up: species or system human; conditions: for Compressive strength: 5 min irrigation, 3-day pH cycling, mean ± SD
Procedure: as §1
(§2) Fortified dentin specimens were subjected to a pH cycling procedure with repeated sequences of de/remineralization. Artificial caries were formed in the dentin specimens by a 1-hour immersion in 2.5 mL of demineralizing solution (1.5 mM CaCl2), 0.9 mM KH2PO4, 50 mM acetate buffer, pH 4.8). All lesions were then immersed in 2.5 mL of remineralizing solution (1.5 mM CaCl2, 0.9 mM KH2PO4, 20 mM HEPES [4-(2-hydroxyethyl)-1-piperazineethanesulfonic acid], pH 7.0) for 23 hours. During each solution change, the specimens were rinsed with deionized water for 10 seconds. The pH cycling process was performed at 37 degrees Celsius for three days.
The procedure for compressive strength testing was the same as for DTS testing except for the orientation of the specimens in the universal testing machine. The loads were applied uniaxially, parallel to the long axes of the specimens, and perpendicular to the dentinal tubule orientation until the specimens fractured. To calculate the compressive strength (MPa), the failure load (N) was divided by the area of the specimen in contact with the load

[3] = Diametral tensile strength (DTS) of fortified dentin specimens after pH cycling; set-up: species or system human; conditions: for Diametral tensile strength: 5 min irrigation, 3-day pH cycling, mean ± SD; for DTS compared with the control group: in words; for DTS: pilot study, mean and standard deviation
Procedure: as §1, §2
The cylindrical specimens were positioned on a customized loading fixture to ensure that the 1.00 mm diameter loading pin aligned with the center axis of the dentin cylinder. Additionally, flat platens were used at both ends of the specimens to further ensure alignment with the testing surface. The specimens were then loaded horizontally into a universal testing machine, receiving a uniaxial load perpendicular to their long axes and parallel to the dentinal tubule orientation. A 1.00 mm diameter stainless steel plunger was used to apply downward pressure on the dentin surface at 1.0 mm/min crosshead speed. The maximal load applied to the plug at the time of dislodgement was recorded in Newtons, and the DTS was calculated using the formula
where F is the force in Newtons, D is the diameter of the cylinder, and h is the height in mm.

[4] = Surface microhardness of fortified dentin specimens after pH cycling; set-up: species or system human; conditions: for microhardness, rank among all the groups: in words
Procedure: as §1, §2
A Micro Met 5100 durometer microhardness tester was used to measure the hardness of the fortified dentin specimens after exposure to a caries inducing environment. Each dentin specimen was further divided into two sections. Three separate indentations were made in each section at depths of 100 μm and 500 μm from the pulp-dentin interface using a 300-g load with a dwell time of 20 seconds for each measurement. The indentations were then evaluated under an optical microscope, and the average length of their two diagonal lengths was used to determine the hardness. The average microhardness value of the indentations' results was considered representative of each depth in each specimen.

[5] = pH cycling model of artificial dentin caries; set-up: species or system human; conditions: in words
Procedure: as §2

[6] = Solubility evaluation: weight loss of fortified dentin in butyric acid; set-up: species or system human; conditions: for Solubility (weight loss): 0.1 M butyric acid pH 4.4, 24 h, 37 C, mean ± SD; for weight loss: pilot study, mean and standard deviation
Procedure: as §1, with “solution. […]” for “solution.”
Fortified dentin specimens were completely immersed in 30 ml of 0.1 M butyric acid buffered with synthetic tissue fluid (pH 4.4) for 24 hours at 37 degrees C. and 100% relative humidity. After incubation, the specimens were removed from the acidic solutions, rinsed with distilled water to remove any residual acid, and dried. The weight of the dentin slices was measured by a digital microbalance before and after immersion into butyric acid, and the difference in weight provided information on dentin solubility.

[7] = Residual stress of treated dentin; conditions: 5 min treatment with AA2P salts
Procedure: After establishing that inorganic trace minerals (IoTM) were dysregulated in dentin, Applicant aimed to examine if extrinsic supplementation could enhance dentinal mechanical properties. Specimens were treated with L-ascorbic acid 2-phosphate (AA2P) salts of IoTM as a solute carrier for the elements for 5 minutes. The following findings were observed, as described below.
Cationic substitution may lead to changes in residual stress. Stress magnitude and distribution by can be measured using XRD (Mn X-ray source, 1 mm aperture) as well as by slitting crack compliance, a destructive mechanical strain release technique, using whole dentin disk samples. In the slitting method, a rectangular sample with a strain gauge applied to the back side will be wired to the electrical discharge machine to cut through a sample to measure strain relief. Finite element analysis can be used to create the stress profile through the depth of a sample. However, the technique's accuracy is limited at the surface. In contrast, XRD is best for surface measurements with very high accuracy. Data can be acquired using a sine-squared psi method to indicate residual stress, modulus, and Poisson ratio. […] Pit depths can be measured using a drop gauge. […] The residual stress in the surface and sub-surface of dentin apatite (as deep as […]) can be determined.

[8] = 100 and 500 μm depths combined, N=20

SMILES	Unit of Intensity ([1]; 500 μm depth)	color intensity [1]	Compressive strength [2]	Diametral tensile strength [3]	DTS compared with the control group [3]	DTS [3]	Microhardness, Mean ([4]; 100 μM depth, N=10)	Microhardness, Mean ([4]; 500 μM depth, N=10)	Microhardness, Mean [4, 8]	protection against artificial caries lesions [5]	Solubility (weight loss) [6]	weight loss [6]	intensity / penetration, rank among all the groups ([1]; in words, 500 μm depth)	compressive strength, rank among all the groups ([2]; in words)	microhardness, rank among all the groups ([4]; 100 μm depth)	microhardness, rank among all the groups ([4]; depths combined)	kind of residual stress generated [7]
O=C1O[C@H]([C@@H](O)CO)C([O-])=C1OP(=O)([O-])[O-].O=C1O[C@H]([C@@H](O)CO)C([O-])=C1OP(=O)([O-])[O-].[Ba+2].[Ba+2].[Ba+2] [Ba]	5.57 ± 0.95 ^b Ui	5.55±1.34	157.96 ± 18.22 ^bc Mpa	61.56 ± 3.55 ^b Mpa	significantly higher DTS than the control group	61.96±4.47 Mpa	45.00 kgf/mm^2	60.00 kgf/mm^2	52.50 kgf/mm^2	protected the dentin lesions	19.03 ± 2.99 ^a %	18.96±3.44%					
O=C1O[C@H]([C@@H](O)CO)C([O-])=C1OP(=O)([O-])[O-].O=C1O[C@H]([C@@H](O)CO)C([O-])=C1OP(=O)([O-])[O-].[Mg+2].[Mg+2].[Mg+2] [Mg]	9.76 ± 1.52 ^a Ui	9.9±2.12	148.97 ± 6.89 ^b Mpa	56.93 ± 11.93 ^b Mpa	significantly higher DTS than the control group	57.60±15.21 Mpa	38.10 kgf/mm^2	57.20 kgf/mm^2	47.65 kgf/mm^2		12.73 ± 4.92 ^a %	12.61±5.67%	highest intensity; also recorded: highest penetration				
O=C1O[C@H]([C@@H](O)CO)C([O-])=C1OP(=O)([O-])[O-].O=C1O[C@H]([C@@H](O)CO)C([O-])=C1OP(=O)([O-])[O-].[Mn+2].[Mn+2].[Mn+2] [Mn]	6.57 ± 0.95 ^b Ui	6.1±0.71	148.03 ± 9.82 ^b Mpa	56.07 ± 9.39 ^b Mpa	significantly higher DTS than the control group	55.80±11.56 Mpa	40.60 kgf/mm^2	58.80 kgf/mm^2	49.70 kgf/mm^2		16.69 ± 3.97 ^a %	16.48±4.55%					
O=C1O[C@H]([C@@H](O)CO)C([O-])=C1OP(=O)([O-])[O-].O=C1O[C@H]([C@@H](O)CO)C([O-])=C1OP(=O)([O-])[O-].[Sr+2].[Sr+2].[Sr+2] [Sr]	6.03 ± 0.67 ^b Ui	6.2±0.85	174.01 ± 11.09 ^c Mpa	60.01 ± 2.70 ^b Mpa	significantly higher DTS than the control group	59.99±1.91 Mpa	47.60 kgf/mm^2	59.10 kgf/mm^2	53.35 kgf/mm^2		18.53 ± 3.74 ^a %	18.16±4.21%		highest	highest	highest	compressive residual stress
O=C1O[C@H]([C@@H](O)CO)C([O-])=C1OP(=O)([O-])[O-].O=C1O[C@H]([C@@H](O)CO)C([O-])=C1OP(=O)([O-])[O-].[Zn+2].[Zn+2].[Zn+2] [Zn]	7.1 ± 1.04 ^b Ui	7.35±1.34	152.40 ± 15.07 ^b Mpa	54.97 ± 10.12 ^b Mpa	significantly higher DTS than the control group	53.98±9.94 Mpa	40.30 kgf/mm^2	56.30 kgf/mm^2	48.30 kgf/mm^2	protected the dentin lesions	12.88 ± 3.39 ^a %	12.55±3.82%					tensile residual stress
